Measurements: DBAASP
Values after ≈ are worked out from the molar mass of the structure shown. Values joined by “and” are separate entries in the source; they are usually repeats but may differ in a detail not shown here. Identical values can stand only once.

Assays:
Assay in all cases: ≥ marks a high value that may be exact or a test limit, other limits are often not marked, values filed in µg/mL are converted to µM
[1] = test system: Escherichia coli ATCC 25922
[2] = test system: Staphylococcus aureus ATCC 29213
[3] = test system: Pseudomonas aeruginosa ATCC 27853
[4] = test system: Staphylococcus aureus ATCC 25923
[5] = test system: Escherichia coli
[6] = test system: Staphylococcus aureus

SMILES	MIC [1] [µM]	MIC [2] [µM]	MIC [3] [µM]	MIC [4]	MIC [5]	MIC [6] [µM]
CC[C@H](C)[C@H](NC(=O)[C@H](CCCN=C(N)N)NC(=O)[C@H](CCC(N)=O)NC(=O)[C@@H](NC(=O)[C@@H](NC(=O)[C@H](CCCN=C(N)N)NC(=O)[C@H](CCCCN)NC(=O)[C@H](C)N)[C@@H](C)CC)C(C)C)C(=O)N[C@@H](CCCCN)C(=O)N[C@@H](CC(=O)O)C(=O)N[C@@H](Cc1ccccc1)C(=O)N[C@@H](CC(C)C)C(=O)N[C@@H](CCCN=C(N)N)C(=O)O [AKRIVQRIKDFLR]	10 (≈ 16.4 µg/mL)	> 40				
C[C@H](NC(=O)[C@H](Cc1ccccc1)NC(=O)[C@H](C)NC(=O)[C@H](Cc1ccccc1)NC(=O)[C@H](CCCCN)NC(=O)[C@H](C)NC(=O)[C@H](Cc1ccccc1)NC(=O)[C@H](CCCCN)NC(=O)[C@H](CCCCN)NC(=O)[C@H](C)NC(=O)[C@H](Cc1ccccc1)NC(=O)[C@H](CCCCN)NC(=O)[C@H](CCCCN)NC(=O)[C@H](Cc1ccccc1)NC(=O)[C@H](CCCCN)NC(=O)[C@H](CCCCN)NC(=O)[C@H](C)NC(=O)[C@H](Cc1ccccc1)NC(=O)[C@H](CCCCN)NC(=O)[C@H](CCCCN)NC(=O)[C@H](C)NC(=O)[C@@H](N)Cc1ccccc1)C(=O)N[C@@H](Cc1ccccc1)C(N)=O [FAKKFAKKFKKFAKKFAKFAFAF]	1.44 (≈ 4 µg/mL)		1.44 (≈ 4 µg/mL)	1.44 µM (≈ 4 µg/mL)		
CC[C@H](C)[C@H](NC(=O)[C@H](CCCN=C(N)N)NC(=O)[C@H](CCC(N)=O)NC(=O)[C@@H](NC(=O)[C@@H](NC(=O)[C@H](CCCN=C(N)N)NC(=O)[C@H](CCCCN)NC(=O)[C@@H](N)Cc1ccccc1)[C@@H](C)CC)C(C)C)C(=O)N[C@@H](CCCCN)C(=O)N[C@@H](CC(=O)O)C(=O)N[C@@H](CCC(N)=O)C(=O)N[C@@H](CC(C)C)C(=O)N[C@@H](CCCN=C(N)N)C(=O)O [FKRIVQRIKDQLR]	10 (≈ 17 µg/mL)	> 40				
CC[C@H](C)[C@H](NC(=O)CNC(=O)[C@H](CO)NC(=O)[C@H](CC(C)C)NC(=O)[C@@H](NC(=O)CN)[C@@H](C)CC)C(=O)N[C@@H](CC(C)C)C(=O)NCC(=O)N[C@@H](C)C(=O)NCC(=O)N[C@@H](CCCCN)C(=O)N[C@@H](CO)C(=O)N[C@@H](CC(C)C)C(=O)N[C@H](C(=O)N[C@H]1CSSC[C@@H](C(=O)O)NC(=O)[C@H](CC(C)C)NC(=O)CNC(=O)[C@H](CO)NC(=O)[C@H](CC(C)C)NC(=O)CNC1=O)C(C)C [GILSGILGAGKSLVCGLSGLC]					50 µM (≈ 95.8 µg/mL)	> 100
NCC(=O)N[C@@H](CCCN=C(N)N)C(=O)N[C@@H](CCCN=C(N)N)C(=O)N1CCC[C@H]1C(=O)N[C@@H](CCCN=C(N)N)C(=O)N1CCC[C@H]1C(=O)N[C@@H](CCCN=C(N)N)C(=O)N1CCC[C@H]1C(=O)N[C@@H](CCCN=C(N)N)C(=O)N1CCC[C@H]1C(=O)N[C@@H](Cc1ccccc1)C(=O)N[C@@H](Cc1ccccc1)C(=O)N[C@@H](Cc1ccccc1)C(N)=O [GRRPRPRPRPFFF]	160 (≈ 270 µg/mL)	40 (≈ 67.4 µg/mL)	> 160			
CC[C@H](C)[C@H](NC(=O)[C@H](CCCCN)NC(=O)[C@H](CO)NC(=O)[C@H](C)NC(=O)[C@H](Cc1c[nH]c2ccccc12)NC(=O)CN)C(=O)NCC(=O)N[C@H](C(=O)N[C@@H](CCC(N)=O)C(=O)N[C@@H](CC(C)C)C(=O)NCC(=O)N[C@@H](CCCCN)C(=O)N[C@@H](CCSC)C(=O)N[C@@H](C)C(=O)N[C@@H](CCCCN)C(=O)N[C@H](C(=O)NCC(=O)N[C@@H](CC(C)C)C(=O)N[C@@H](CCCCN)C(=O)N[C@@H](CCC(=O)O)C(=O)N[C@@H](Cc1ccccc1)C(=O)N[C@H](C(=O)N[C@@H](CCC(N)=O)C(=O)N[C@@H](CO)C(=O)O)C(C)C)C(C)C)[C@@H](C)O [GWASKIGTQLGKMAKVGLKEFVQS]	100 (≈ 256 µg/mL)			25 µM (≈ 64.1 µg/mL)		
CC[C@H](C)[C@H](NC(=O)[C@H](CCCCN)NC(=O)[C@H](C)NC(=O)[C@H](CCSC)NC(=O)[C@@H](NC(=O)[C@H](CCCCN)NC(=O)[C@H](CC(C)C)NC(=O)[C@H](Cc1ccccc1)NC(=O)[C@@H](NC(=O)[C@H](CC(=O)O)NC(=O)CNC(=O)[C@H](Cc1c[nH]c2ccccc12)NC(=O)CN)[C@@H](C)O)[C@@H](C)O)C(=O)N[C@@H](C)C(=O)N[C@@H](CCCCN)C(=O)N[C@H](C(=O)NCC(=O)N1CCC[C@H]1C(=O)N[C@@H](CCCCN)C(=O)N[C@@H](CC(C)C)C(=O)N[C@@H](CC(C)C)C(=O)N[C@@H](Cc1cnc[nH]1)C(=O)N[C@@H](CO)C(=O)O)C(C)C [GWGDTFLKTMAKIAKVGPKLLHS]				> 64 µM and 32 µM		
CSCC[C@H](NC(=O)[C@@H](N)CCCCN)C(=O)N[C@@H](CCCCN)C(=O)N[C@@H](CCCCN)C(=O)N[C@@H](C)C(=O)N[C@@H](CC(C)C)C(=O)N[C@@H](CCC(N)=O)C(=O)N[C@@H](Cc1ccc(O)cc1)C(N)=O [KMKKALQY]	> 100		> 100			

Now from value to compound:

MIC [1] [µM]	MIC [2] [µM]	MIC [3] [µM]	MIC [4]	MIC [5]	MIC [6] [µM]	SMILES
30 (≈ 45.9 µg/mL)		40 (≈ 61.2 µg/mL)	30 µM (≈ 45.9 µg/mL)			CC(C)C[C@H](NC(=O)[C@H](CO)NC(=O)[C@@H](N)CCCCN)C(=O)N[C@H](C(=O)N[C@@H](CCCN=C(N)N)C(=O)N[C@@H](CCCN=C(N)N)C(=O)N[C@@H](Cc1c[nH]c2ccccc12)C(=O)N[C@@H](CCCN=C(N)N)C(=O)N[C@@H](CO)C(=O)N[C@@H](CCCN=C(N)N)C(=O)N[C@@H](Cc1c[nH]c2ccccc12)C(N)=O)C(C)C [KSLVRRWRSRW]
5 (≈ 8.89 µg/mL)	5 (≈ 8.89 µg/mL)					CC(C)C[C@H](NC(=O)[C@H](CCCCN)NC(=O)[C@H](CC(C)C)NC(=O)[C@H](CC(C)C)NC(=O)[C@H](CCCCN)NC(=O)[C@H](CCCCN)NC(=O)[C@H](C)NC(=O)[C@H](CC(C)C)NC(=O)[C@H](CCCCN)NC(=O)[C@H](CC(C)C)NC(=O)[C@H](CC(C)C)NC(=O)[C@H](CCCCN)NC(=O)[C@H](CCCCN)NC(=O)[C@@H](N)CC(C)C)C(=O)N[C@@H](C)C(=O)NCC(=O)O [LKKLLKLAKKLLKLAG]
10 (≈ 17.8 µg/mL)	10 (≈ 17.8 µg/mL)					CC(C)C[C@H](NC(=O)[C@H](CCCCN)NC(=O)[C@H](C)NC(=O)[C@H](CC(C)C)NC(=O)[C@H](CCCCN)NC(=O)[C@H](CCCCN)NC(=O)[C@H](CC(C)C)NC(=O)[C@H](CC(C)C)NC(=O)[C@H](CCCCN)NC(=O)[C@H](CC(C)C)NC(=O)[C@H](CC(C)C)NC(=O)[C@H](CCCCN)NC(=O)[C@H](CCCCN)NC(=O)[C@@H](N)CC(C)C)C(=O)N[C@@H](C)C(=O)NCC(=O)O [LKKLLKLLKKLAKLAG]
		32 (≈ 48.2 µg/mL)				CC(C)C[C@H](NC(=O)[C@H](Cc1ccccc1)NC(=O)[C@H](C)NC(=O)CNC(=O)[C@H](Cc1c[nH]c2ccccc12)NC(=O)[C@H](CC(N)=O)NC(=O)[C@@H](N)CC(C)C)C(=O)N[C@@H](CCCCN)C(=O)N[C@@H](Cc1cnc[nH]1)C(=O)N[C@@H](Cc1ccccc1)C(=O)N[C@@H](Cc1ccccc1)C(=O)N[C@@H](CCCCN)C(=O)O [LNWGAFLKHFFK]
		16 (≈ 22.7 µg/mL)				CC[C@H](C)[C@H](NC(=O)[C@H](C)NC(=O)CNC(=O)[C@H](Cc1c[nH]c2ccccc12)NC(=O)[C@H](CC(N)=O)NC(=O)[C@@H](N)CC(C)C)C(=O)N[C@@H](CCCCN)C(=O)N[C@@H](CCCCN)C(=O)N[C@@H](Cc1cnc[nH]1)C(=O)N[C@H](C(=O)N[C@H](C(=O)N[C@@H](CCCCN)C(=O)O)[C@@H](C)CC)[C@@H](C)CC [LNWGAIKKHIIK]
> 100		> 100				CC[C@H](C)[C@H](NC(=O)[C@H](Cc1ccc(O)cc1)NC(=O)[C@H](CCC(N)=O)NC(=O)[C@H](CC(C)C)NC(=O)[C@H](C)NC(=O)[C@H](CCCCN)NC(=O)[C@H](CCCCN)NC(=O)[C@@H](N)CCSC)C(=O)N[C@@H](CCCCN)C(=O)N[C@@H](CC(C)C)C(=O)N[C@@H](CC(C)C)C(=O)N[C@@H](CCCCN)C(=O)N[C@@H](CCC(=O)O)C(N)=O [MKKALQYIKLLKE]
457 (≈ 600 µg/mL)	> 534					CC[C@H](C)[C@H](NC(=O)CNC(=O)CNC(=O)[C@H](CC(C)C)NC(=O)[C@H](CC(C)C)NC(=O)[C@H](CO)NC(=O)CNC(=O)[C@@H](NC(=O)[C@H](CC(C)C)NC(=O)[C@@H](N)CC(N)=O)C(C)C)C(=O)N[C@@H](CC(C)C)C(=O)N[C@@H](CCCCN)C(=O)N[C@@H](CCCCN)C(N)=O [NLVGSLLGGILKK]
112 (≈ 128 µg/mL)	> 56.1	28 (≈ 32 µg/mL)				CC[C@H](C)[C@H](NC(=O)[C@H](CCCCN)NC(=O)[C@H](C)NC(=O)[C@@H](N)CCC(N)=O)C(=O)N[C@@H](CCCN=C(N)N)C(=O)N[C@H](C(=O)N[C@@H](CCCN=C(N)N)C(=O)N[C@@H](CC(C)C)C(=O)N[C@@H](CO)C(=O)N[C@@H](C)C(=O)O)C(C)C [QAKIRVRLSA]
			3 µM and 6 µM	3 µM and 6 µM		NCCCC[C@H](NC(=O)[C@H](CCCCN)NC(=O)[C@H](CCCN=C(N)N)NC(=O)[C@H](CCCN=C(N)N)NC(=O)[C@H](Cc1c[nH]c2ccccc12)NC(=O)[C@H](Cc1c[nH]c2ccccc12)NC(=O)[C@H](CCCN=C(N)N)NC(=O)[C@H](CCCCN)NC(=O)[C@H](CCCCN)NC(=O)[C@@H](N)CCCN=C(N)N)C(N)=O [RKKRWWRRKK]
233 (≈ 200 µg/mL)		58.2 (≈ 49.9 µg/mL)	58.2 µM (≈ 49.9 µg/mL)			NC(=O)[C@H](CCCN=C(N)N)NC(=O)[C@H](Cc1c[nH]c2ccccc12)NC(=O)[C@H](CCCN=C(N)N)NC(=O)[C@H](Cc1c[nH]c2ccccc12)NC(=O)[C@@H](N)CCCN=C(N)N [RWRWR]
> 250	> 250					CC(C)C[C@H](NC(=O)[C@H](C)NC(=O)[C@H](Cc1ccc(O)cc1)NC(=O)[C@H](CC(C)C)NC(=O)[C@H](CCCN=C(N)N)NC(=O)[C@H](C)NC(=O)[C@H](CC(C)C)NC(=O)[C@H](CO)NC(=O)[C@H](C)NC(=O)[C@H](CC(C)C)NC(=O)[C@H](CC(=O)O)NC(=O)[C@H](CCCN=C(N)N)NC(=O)[C@H](CCCN=C(N)N)NC(=O)[C@H](CCCN=C(N)N)NC(=O)[C@H](CCC(=O)O)NC(=O)[C@H](CCC(=O)O)NC(=O)[C@H](CO)NC(=O)[C@@H](NC(=O)[C@H](CCC(N)=O)NC(=O)[C@H](Cc1ccc(O)cc1)NC(=O)[C@@H](N)Cc1ccc(O)cc1)C(C)C)C(=O)N[C@@H](C)C(=O)N[C@@H](CCCN=C(N)N)C(N)=O [YYQVSEERRRDLASLARLYALAR]
